PMC8426238, “Synthesis and preclinical evaluation of [^11C]MTP38 as a novel PET ligand for phosphodiesterase 7 in the brain” (European Journal of Nuclear Medicine and Molecular Imaging, 2021)

What was measured:
PDE7 [1] = assay: In vitro autoradiography of rat brain sections with [^11C]MTP38; type: binding, Sprague-Dawley rats
Procedure: (§1) In vitro autoradiography was performed using 20-μm-thick fresh-frozen brain sections derived from Sprague-Dawley rats and rhesus monkeys. The sections were preincubated for 10 min in 50 mM Tris-HCl buffer (pH 7.4) at room temperature. These samples were then incubated for 60 min at room temperature in fresh buffer containing [^11C]MTP38 (2 nM) with or without unlabeled MTP38 (10 μM), MTP-X (4 μM), or MT-3014 (40 nM). The concentrations of MTP-X and MT-3014 were more than 400-fold of reported IC50 values of these agents. After the incubation, the brain sections were immersed twice in cold buffer for 3 min, dipped in cold distilled water for 10 s, and dried with warm airflow. Then the sections were contacted with imaging plates (BAS-MS2025, Fujifilm, Tokyo, Japan) for 60 min. The imaging plates were scanned with an imaging plate reader (BAS5000, Fujifilm, Tokyo, Japan), and the images were analyzed with the MultiGuage software (ver. 3.0, Fujifilm, Tokyo, Japan).

PDE7 [2] = test system: PDE7; design: method as in PMID 26330158; conditions: living rodent brains; cited from earlier work
PDE7 [3] = assay: In vitro autoradiography of monkey brain sections with [^11C]MTP38; type: binding, rhesus monkeys; conditions: 2 nM
Procedure: as §1

[4] = Radiometabolite analysis of arterial plasma; type: in vivo, rhesus monkeys; conditions: monkey; 90 min after injection
Procedure: (§2) PET scans for monkeys at baseline and following pretreatment with unlabeled MTP38, and 3, 10, 30 mg/kg of MTP-X were performed along with arterial blood sampling to obtain a metabolite-corrected input function. In total, 22 arterial blood samples were collected manually with heparinized syringes via a saphenous artery contralateral to the radioligand injection. Sampling was performed at 10, 20, 30, 40, 50, 60, 75, 90, 105, 120, 150, 180, and 210 s and at 4, 5, 10, 20, 30, 45, 60, 75, and 90 min after radioligand injection. Blood samples were then placed on ice and divided into two aliquots, one of which was centrifuged with a refrigerated centrifuge (15,000×g, 3 min, 4 °C) to obtain plasma.
Radioactivity in blood and plasma was measured with an auto-gamma counter (wizard 2480, PerkinElmer, Waltham, MA, USA). […] An aliquot of supernatant (< 1 mL) was injected into an HPLC system (JASCO, Tokyo, Japan) equipped with a radioactivity detector (column: CAPCELL PAK AQ, 5 μm, 10 × 250 mm; column temperature: room temperature; mobile phase: 45% CH3CN; flow rate: 6.0 mL/min). The fraction of the parent [^11C]MTP38 was calculated as a ratio of the peak area of MTP38 to the total area of peaks found on the radiochromatograms. Then, an arterial input function was determined by quantifying the metabolite-corrected arterial plasma radioactivity concentration.

PDE7 [5] = assay: PET imaging in rats with [^11C]MTP38; type: in vivo, Wistar rats
Procedure: Each rat was scanned multiple times with a shortest interval of 1 month. Rats were anesthetized with isoflurane (3% for induction and 2% for maintenance) throughout the experiment. The tail vein was cannulated for radioligand injection. Body temperature was maintained at around 37 °C using a heating pad. The head of the rat was fixed at the center of the field of view of an animal PET scanner (microPET Focus220, Siemens Medical Solutions, Malvern, USA). A 90-min list-mode data acquisition was started simultaneously with intravenous administration of [^11C]MTP38. The list-mode data were sorted into 3D sinograms, which were then Fourier-rebinned into 2D sinograms (frames: 10 s × 6, 30 s × 8, 1 min × 5, 2 min × 10, and 5 min × 12). The sinograms were reconstructed with a filtered back-projection algorithm using a Hanning filter with a cut-off at the Nyquist frequency (0.5 mm^−1).
Along with baseline scans, we conducted blockade PET experiments according to the following pretreatment protocols: (1) unlabeled MTP38 (0.5 mg/kg) was administered intravenously at 2 min before radioligand injection, and (2) MTP-X (100 mg/kg) was administered orally at 1 h before radioligand injection.
PET images were co-registered manually onto the magnetic resonance (MR) template image. Details of co-registration were described elsewhere. Regions of interest (ROIs) were placed on the striatum as a target region and on the cerebellum (gray matter) as a reference region according to the expression of PDE7B mRNA in the rat brain [6], and time-activity curves (TACs) were generated for each ROI. Radioactivity in the brain was normalized with injected radioactivity and body weight, and expressed as standardized uptake value (SUV). Then the SUV ratio between the striatum and cerebellum was obtained to estimate the radioligand binding in the target region in baseline and blockade experiments.

PDE7 [6] = assay: PET imaging in monkeys with [^11C]MTP38; type: in vivo, rhesus monkeys; conditions: for Striatal BPND: MRTMo, cerebellar reference
Procedure: Each monkey underwent multiple PET scans with intervals longer than 2 weeks. The monkeys were given an intramuscular injection of 0.04 mg/kg of atropine sulfate at 1.5 h before radioligand injection. They were subsequently anesthetized with an intramuscular injection of ketamine (5 mg/kg) and xylazine (0.5 mg/kg), intubated, and kept anesthetized with 1–2% isoflurane. Heart rate, electrocardiogram, body temperature, blood oxygen saturation level, and end-tidal CO2 were monitored during the PET scan. The monkeys were placed on a bed in a supine position, and the head was fixed at the center of the field of view of a microPET scanner Focus220. A transmission scan was performed for about 20 min using a ^68Ge-^68Ga point source. A 90-min list-mode data acquisition was started simultaneously with intravenous administration of [^11C]MTP38 via a saphenous vein cannula. All list-mode data were sorted into 3D sinograms, which were then Fourier-rebinned into 2D sinograms (frames: 10 s × 6, 30 s × 8, 1 min × 5, 2 min × 10, and 5 min × 12). The images were corrected for attenuation and reconstructed with a filtered back-projection algorithm using a Hanning filter with a cut-off at the Nyquist frequency (0.5 mm^−1).
Along with baseline scans, we carried out blocking PET experiments according to the following pretreatment protocols: (1) unlabeled MTP38 was administered as an intravenous bolus (0.075 mg/kg) at 1 h before radioligand injection followed by continuous infusion at a rate of 0.3 mg/kg/h until the end of the PET scan, and (2) MTP-X (0.3–30 mg/kg) was administered orally at 2 or 6 h before radioligand injection.
as §2
PET images were co-registered onto the individual MR images. ROIs were placed on the prefrontal and medial frontal cortices, hippocampus, amygdala, striatum (caudate + putamen), nucleus accumbens, thalamus, cerebellum (gray matter), and brainstem. TACs in the baseline and blockade experiments were generated for each ROI.
Regional TACs were examined by several analytical methods to calculate the regional total distribution volume (VT), which represents the sum of non-specific and specific radioligand binding. Compartment model (1- or 2-tissue) and Logan’s graphical analyses were employed for describing the radioligand kinetics in the brain. The fractional blood volume was fixed at 0.05. For compartment model analyses, an optimal model was chosen on the basis of Akaike’s information criterion (AIC) and model selection criterion (MSC). For graphical analyses, an equilibration time t* was determined so that by the maximum error from the regression within the linear segment was considered to be 10% for each TAC. Time stability of VT was investigated by truncating the data duration stepwise from 90 min to 30 min. The VT values with or without pretreatment with a blocker were then compared. We also validated the use of the cerebellum as a reference tissue by this comparison, in addition to the autoradiographic findings, in monkey brain slices. The non-displaceable binding potential (BPND) was calculated by the original multilinear reference tissue model (MRTMO). t* was determined in the same manner as Logan’s graphical analysis. […]

[7] = monkey, baseline, Logan's graphical analysis, means of two animals

## Cc1nc2ccc(F)cc2nc1-c1cc2nc(N3CC[C@@H](F)C3)cc(NCC(C)(C)O)n2n1 [MT-3014, reference compound]
PDE7 [1]; [^11C]MTP38 2 nM, unlabeled MTP38 10 μM, MTP-X 4 μM, MT-3014 40 nM
  effect of blocker on striatal radioactivity of [^11C]MTP38: did not change the radioligand binding

## O=C1Nc2c(Cl)ccc(OCC[18F])c2C2(CCCCC2)N1 [[^18F]MICA-003]
PDE7 [2]
  in vivo metabolism: rapid metabolic conversion to a brain-entering radiomolecule

## C[C@@H]1CC[C@H](C)N(c2nnc3c(N)ncc([11C]#N)n23)C1 [[^11C]MTP38]
PDE7 [3]
  radioligand reactivity in the striatum: high radioligand reactivity in the striatum
PDE7 [1]; 2 nM
  radioligand reactivity in the striatum: high radioligand reactivity in the striatum
[4]
  fraction of unmetabolized [^11C]MTP38 of total radioactivity in plasma: 27.2%
PDE7 [5]; baseline, plateau from 5 min
  striatum-to-cerebellum ratio of SUV: ~1.5
PDE7 [5]; iv, 90 min
  SUV in the striatum and cerebellum at 90 min: below 1.0
PDE7 [5]; iv, baseline
  peak SUV in the striatum and cerebellum: exceeding 4.0
PDE7 [5]; iv, striatum and cerebellum
  time of SUV peak after injection: ≤ 1 min
PDE7 [6]; monkey #1, baseline
  Striatal BPND: 0.409
PDE7 [6]; monkey #2, baseline
  Striatal BPND: 0.287
PDE7 [6]; [7]
  Regional VT, AMY (amygdala): 2.50 mL/cm^3
  Regional VT, BS (brainstem): 3.13 mL/cm^3
  Regional VT, CB (cerebellum): 2.69 mL/cm^3
  Regional VT, HIP (hippocampus): 2.38 mL/cm^3
  Regional VT, MFC (medial frontal cortex): 3.27 mL/cm^3
  Regional VT, NAc (nucleus accumbens): 2.97 mL/cm^3
  Regional VT, PFC (prefrontal cortex): 2.93 mL/cm^3
  Regional VT, STR (striatum): 3.59 mL/cm^3
  Regional VT, THA (thalamus): 3.03 mL/cm^3
PDE7 [6]; monkey, some ROIs including the striatum, model failed to estimate VT
  k3 (2-tissue compartment model): < 0.0001 min⁻¹
PDE7 [6]; monkeys, iv
  maximal SUV in brain: ~5
  time of brain radioactivity peak after injection: 3 to 4 min
